Data taken from paper PMC7144234, “Antiproliferative chromone derivatives induce K562 cell death through endogenous and exogenous pathways” (Journal of Enzyme Inhibition and Medicinal Chemistry, 2020).

Key:
PBMC = test: MTT assay, peripheral blood mononuclear cells; format: cell-based, human; conditions: 72 h
Procedure: (§1) The colorimetric MTT (3-(4,5-dimethylthiazol-2-yl)-2,5-diphenyltetrazolium bromide) assay was used to measure the cell viability of all of the above cell lines following treatment with target hybrids. Exponentially growing cells were added into 96-well plates at a concentration of 2000–4000 cells per well. Following attachment the cells were treated with varying concentrations (64, 16, 4, 1, 0.25, 0.0625 and 0.015625 µM) of target compounds in media and were kept for incubation for 72 h. MTT (20 µL, 5 mg/mL in PBS) was added to each well and the cells were incubated for another 3 h at 37 °C. Then the medium was removed, followed by the addition of 150 µL DMSO for each well. After that, the absorbance (OD) data of each well at 570 nm wavelength were measured by a Microplate Reader (BIO-RAD), and half inhibition rates (IC50) were calculated[59]^,[60].

K562 cells [1] = test: Cell apoptosis assay (Annexin V-FITC/PI, flow cytometry); format: cell-based, human; conditions: 72 h
Procedure: […] 500 µL of binding buffer suspension cells, 5 µL of Annexin V-FITC, and 5 µL of PI were mixed incubated at room temperature, protected from light, and reacted for 5–15 min, then analysed with flow cytometry instrument to detect cell apoptosis.

Catalase = test: Human Apoptosis Array kit, catalase expression in K562 cells; format: cell-based; conditions: K562, 2 µM, 24 h
Procedure: (§2) The relative expression levels of 35 apoptosis-related proteins were evaluated using Human Apoptosis Array kit (R&D Systems, Abingdon, UK) in K562 cells. Proteins were extracted according to the manufacturer’s protocol from cells treated for 24 h with compound 15a (2 µM). The tool is fast, sensitive and economical, with 2.0 ml of array buffer added to each well, followed by array, The capture antibodies are retained in their specific locations, then incubated, transferred, diluted, added to Streptavidin-HRP, shaken. The platform shaker was incubated on the plate for 30 min, then the membrane was removed, 1 ml of the prepared Chemi Reagent Mix was evenly pipetted onto each membrane, incubated, the excess Chemi Reagent Mix was removed, and the membrane was placed in a self-developing film cartridge, exposed to X-ray film for 1–10 min. The positive signals seen on developed film can be quickly identified by placing the transparency overlay template on the array image and aligning it with the pairs of reference spots in three corners of each array. Creating templates, exporting files, averaging signals, finding backgrounds, comparing corresponding signals on the array to determine relative changes in apoptosis-related protein levels.

K562 cells [2] = test: Cell cycle analysis (PI staining, flow cytometry); format: cell-based, human; conditions: 72 h
Procedure: The cells in the logarithmic growth phase were digested into six-well plates. The next day, cells were treated with different concentrations (0, 0.8, 1.6, 3.2 µM) of compound 15a. After 72 h, 5 × 10^5 cells were collected and fixed with a volume fraction of 70% ethanol for 2 h (or overnight), washed the fixative with PBS, added 100 µL RNase A in 37 °C water bath for 30 min, and finally 400 µL of PI stain was added, after 30 min under the dark at 4 °C, the cytometry was used to record the red fluorescence at the excitation wavelength of 488 nm, and the cell cycle distribution of the DNA content was evaluated.

HepG2 = test: MTT antiproliferative assay, HepG2; format: cell-based, human; conditions: 72 h, hepatoma HepG2
Procedure: as §1

Bad = test: Human Apoptosis Array kit, Bad expression in K562 cells; format: cell-based; conditions: K562, 2 µM, 24 h
Procedure: as §2

Claspin = test: Human Apoptosis Array kit, claspin expression in K562 cells; format: cell-based; conditions: K562, 2 µM, 24 h
Procedure: as §2

K562 = test: MTT antiproliferative assay, K562; format: cell-based, human; conditions: 72 h, chronic myeloid leukaemia K562
Procedure: as §1

L-02 = test: MTT assay, normal hepatic L-02 cell line; format: cell-based; conditions: 72 h, human normal hepatic L-02 cell line
Procedure: as §1

HCT-116 = test: MTT antiproliferative assay, HCT-116; format: cell-based, human; conditions: 72 h, colorectal carcinoma HCT-116
Procedure: as §1

Bax = test: Human Apoptosis Array kit, Bax expression in K562 cells; format: cell-based; conditions: K562, 2 µM, 24 h
Procedure: as §2

B16 = test: MTT antiproliferative assay, B16; format: cell-based; conditions: 72 h, melanoma B16
Procedure: as §1

HtrA2 = test: Human Apoptosis Array kit, HtrA2 expression in K562 cells; format: cell-based; conditions: K562, 2 µM, 24 h
Procedure: as §2

MCF-7 = test: MTT antiproliferative assay, MCF-7; format: cell-based, human; conditions: 72 h, breast carcinoma MCF-7
Procedure: as §1

K562 cells [3] = test: Hoechst 33258 staining, morphological analysis; format: cell-based, human
Procedure: K562 cells were incubated with different concentrations (0, 0.8, 1.6 and 3.2 µM) of 15a for a period of time, the medium containing the compound was removed, the cell smear was naturally dried, and immersed in 4% paraformaldehyde for 30 min or overnight to improve cell permeability, then soaked in PBS, washed for three times, added appropriate amount of Hoechst 33258 staining solution, fully covered, allowed to stand at room temperature for 10 min, finally immersed in PBS again, washed three times and sealed. Anti-fluorescence quenching after the liquid was sealed, the staining results were observed under a fluorescence microscope.

4-((1-(6-Methoxy-4-oxo-4H-chromene-3-carboxamido)propan-2-yl)oxy)-3-(phenylsulfonyl)-1,2,5-oxadiazole 2-oxide [15a]
IC50 (PBMC): > 50 µM | apoptotic rate (K562 cells [1]; K562, 0.8 µM): 16.28% | apoptotic rate (K562 cells [1]; K562, 1.6 µM): 20.56% | apoptotic rate (K562 cells [1]; K562, 3.2 µM): 51.87% | expression of Catalase (Catalase): up-regulated | cells in G1 phase (K562 cells [2]; K562, 0.8 µM): 48.84% | cells in G2 phase (K562 cells [2]; K562, 0.8 µM): 10.71% | cells in S phase (K562 cells [2]; K562, 0.8 µM): 40.45% | cells in G1 phase (K562 cells [2]; K562, 1.6 µM): 41.43% | cells in G2 phase (K562 cells [2]; K562, 1.6 µM): 11.89% | cells in S phase (K562 cells [2]; K562, 1.6 µM): 46.68% | cells in G1 phase (K562 cells [2]; K562, 3.2 µM): 36.21% | cells in G2 phase (K562 cells [2]; K562, 3.2 µM): 13.51% | cells in S phase (K562 cells [2]; K562, 3.2 µM): 50.28% | IC50 (HepG2): 4.86 ± 0.39 µM | expression of Bad compared to the control (Bad): increased expression | expression of Claspin (Claspin): increased | IC50 (K562): 1.61 ± 0.18 µM | IC50 (L-02): 36.9 ± 0.62 µM | IC50 (HCT-116): 6.74 ± 0.9 µM | expression of Bax compared to the control (Bax): increased expression | IC50 (B16): 9.72 ± 0.52 µM | expression level of HtrA2 (HtrA2): increased the expression levels | IC50 (MCF-7): 13.7 ± 0.33 µM | cell morphology after Hoechst 33258 staining (K562 cells [3]; K562, 3.2 µM): cell membranes were ruptured and the nuclei were fragmented | cell morphology after Hoechst 33258 staining (K562 cells [3]; K562, 0.8 and 1.6 µM): typical apoptotic morphology
